According to patent US7488716B2 (priority 2001, dated 2009):
Where a SMILES comes first, the peptide text is derived from it. The star is where a group is joined. Palmitoyl = CCCCCCCCCCCCCCCC(=O)*

Legend:
glucagon receptor = target: T1, glucagon receptor (Rattus norvegicus, UniProt P30082); assay: Competitive binding of peptide to the glucagon receptor in rat liver plasma membranes (125I glucagon)
T1 construct: glucagon receptor present in the plasma membranes isolated from rat liver; from tissue; host or cells: rat liver plasma membranes
T1 sequence (P30082 27-485): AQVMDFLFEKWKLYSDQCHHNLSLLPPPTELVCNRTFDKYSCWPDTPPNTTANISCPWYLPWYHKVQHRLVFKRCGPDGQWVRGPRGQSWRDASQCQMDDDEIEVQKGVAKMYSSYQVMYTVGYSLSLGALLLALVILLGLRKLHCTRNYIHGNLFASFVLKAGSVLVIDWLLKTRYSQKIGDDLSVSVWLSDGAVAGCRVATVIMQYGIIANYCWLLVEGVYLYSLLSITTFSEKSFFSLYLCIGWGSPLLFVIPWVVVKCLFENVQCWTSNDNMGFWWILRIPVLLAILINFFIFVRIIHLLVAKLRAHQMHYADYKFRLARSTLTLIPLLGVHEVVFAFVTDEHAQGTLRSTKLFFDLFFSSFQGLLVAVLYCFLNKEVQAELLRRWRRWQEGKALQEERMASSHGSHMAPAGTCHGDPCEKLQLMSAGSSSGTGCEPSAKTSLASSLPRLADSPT
Description: The wet weight of the livers was determined and the tissue minced in 5 volumes of ice cold TES buffer and a slurry prepared using a polytron. All buffers and spins were kept at 4° C. The slurry was further homogenized using three strokes of a handheld dounce homogenizer. The homogenate was passed through several layers of cheesecloth and spun at 25,000×g for 10 minutes. Pellets were homogenized in 22.1 ml TES buffer using 10 strokes of a handheld dounce homogenizer. Twenty-seven point nine milliliters of 2.4 M sucrose in TE was added and mixed well. The homogenate was distributed among several tubes, and each tube was overlaid with 7 ml of TES buffer. The tubes were spun at 120,000×g for 60 minutes. The plasma membranes were removed from the interface that formed during the spin, diluted in TES and concentrated using a 15 minute spin at 200,000×g. The resulting pellet was again homogenized in 9.8 ml TES buffer, combined with 10.3 ml 2.4M sucrose, overlaid with 7 ml TES, and centrifuged at 180,000×g for 30 min. […] The final pellet was resuspended in TES. Plasma membranes were stored at −80° C. until ready for use.
(§1) Competitive binding of some polypeptides of the invention to rat liver plasma membranes was measured as follows. Ninety-six-well GF/C filtration plates (Millipore, Bedford, Mass.) were blocked with 0.1% PEI for at least one hour and washed twice with binding buffer consisting of 20 mM Tris, 2 mM EDTA, pH 7.5, 1 mg/ml BSA, and 1 mg/ml bacitracin. […] The plates were dried, scintillant was added to each well, and cpm per well determined using a Wallac Microbeta counter.

GLP-1 receptor [1] = target: T2, GLP-1 receptor (Rattus norvegicus, UniProt P32301); assay: Peptide signaling through GLP-1 receptor, cAMP scintillation proximity assay in RINm5F cells; type: cell-based; conditions: for GLP1 Relative Potency: EC50 of native GLP-1 (7-36) divided by EC50 of polypeptide x 100, cAMP in RINm5F cells; for Emax: RIN-m5F, read-out: % GLP1 max
T2 construct: endogenous in cells; host or cells: RINm5F cells
T2 sequence (P32301 22-463): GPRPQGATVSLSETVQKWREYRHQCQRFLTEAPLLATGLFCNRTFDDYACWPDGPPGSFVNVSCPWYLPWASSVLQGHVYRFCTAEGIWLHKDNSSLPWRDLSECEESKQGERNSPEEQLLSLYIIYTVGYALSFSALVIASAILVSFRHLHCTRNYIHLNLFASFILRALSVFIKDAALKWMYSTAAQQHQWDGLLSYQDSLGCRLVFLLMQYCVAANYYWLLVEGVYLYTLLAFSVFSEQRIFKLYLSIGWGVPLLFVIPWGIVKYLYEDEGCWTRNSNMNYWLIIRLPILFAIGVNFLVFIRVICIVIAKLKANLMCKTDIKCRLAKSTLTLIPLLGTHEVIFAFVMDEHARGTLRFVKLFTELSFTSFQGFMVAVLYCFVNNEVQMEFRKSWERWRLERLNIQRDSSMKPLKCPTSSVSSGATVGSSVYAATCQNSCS
Description: The media was removed and the cells were washed twice with PBS. […] For assay of peptides conjugated with fatty acid, the BSA was omitted from the incubation buffer. The incubation buffer was removed, and the cells were lysed in the lysis reagent provided with the cAMP Scintillation Proximity Assay (SPA) direct screening assay system (Amersham Pharmacia Biotech Inc, Piscataway, N.J.). The amount of cAMP (in pmol) present in the lysates was determined following instructions provided with this kit.
The amount of cAMP (in pmol) produced at each concentration of peptide was plotted and analyzed by nonlinear regression using Prizm software to determine the EC50 for each peptide.

GLP-1 receptor [2] = target: T2, GLP-1 receptor; assay: Competitive binding of peptide to the GLP-1 receptor in RINm5F cell plasma membranes (125I GLP-1); conditions: read-out: GLP1 RIN IC50
Description: Flasks of RINm5F cells were washed with PBS, scraped in 20 mM Hepes-1 mM EDTA-250 mM sucrose buffer containing protease inhibitors (HES) and homogenized in a dounce homogenizer followed by repeated resuspension through a 23 gauge needle. Unbroken cells and nuclei were removed by centrifugation at 500×g for 5 minutes. The pellet was resuspended in HES buffer using a 23 gauge needle and the centrifugation was repeated. The supernatants from the two spins were combined and centrifuged at 40,000×g for 20 min. The resulting plasma membrane pellet was resuspended in HES buffer using a 23 gauge needle followed by a 25 gauge needle. Membranes were stored at −80° C. until use.
as §1, with “RINm5F cell” for “rat liver”, “0.3%” for “0.1%”

[3] = Intraperitoneal glucose tolerance testing (IPGTT) in rats or mice; type: in vivo; conditions: ipGTT in mice 3 hours post dosing with 100 μg/kg peptide
Description: Blood glucose levels during intraperitoneal glucose tolerance testing in rats or mice by some polypeptides of the invention were measured as follows. The in vivo activity of the polypeptides of the invention when administered subcutaneously was examined in rats or mice. Rats or mice fasted overnight were given a subcutaneous injection of control or peptide (100 μg/kg). Basal blood glucose was measured prior to administration of peptides or three or 17 hours after administration of derivatized peptides, and the rats or mice were given 2 g/kg of glucose intraperitoneally. Blood glucose was measured again after 15, 30 and 60 minutes in rats or 30 and 60 minutes in mice.

perfused rat islets = assay: Insulin secretion by perfused rat islets; type: cell-based; conditions: 50 nM peptide, 8 mM glucose
Description: Sprague Dawley rats (275-320 g) were used as the source of donor islets. Briefly, the pancreas was filled with 10 ml of cold reconstituted Liberase RI (Boehringer Manheim), harvested and incubated with additional 5 ml enzyme solution in water bath for 30 minutes. Tissue suspension was washed twice with cold 10% FBS/Hanks buffer (Gibco), resuspended in 8 ml 25% ficoll (Sigma) and then layered with 5 ml each of 23%, 20% and 11% ficoll. The islets in the 20% layer after centrifugation were removed, washed twice with cold 10% FBS/Hank buffer and resuspended in 10% FBS/RPMI 1640 media (Sigma).
Insulin secretion of perfused rat islets mediated by some peptides of the invention was measured as follows. The bi-phasic responses of insulin release stimulated by these polypeptides were tested by islet perfusion. Fifty islets were loaded in the perifusion chamber and perifused with HEPES-KRB containing 3 mM glucose at 37° C. After 60 min, islets were exposed to buffer containing 8 mM glucose with or without peptide (50 nM) and perifused for another 30 min. Fractions of perifusate were collected at 1 or 5 minute intervals for insulin determination. Insulin was measured using an ELISA kit (Alpco Diagnostics, Windham, N.H.).

Row | SMILES | IC50 (glucagon receptor) [nM] | GLP1 Relative Potency (GLP-1 receptor [1]) [%] | Emax (GLP-1 receptor [1]) [%] | IC50 (GLP-1 receptor [2]) [nM] | In vivo Decrease IpGTT AUC [3] [%] | Increase of insulin secretion from perfused islets (perfused rat islets)
1 | CCCCCCCCCCCCCCCC(=O)NCCCC[C@H](NC(=O)CNC(=O)[C@H](CCCNC(=N)N)NC(=O)CNC(=O)[C@H](CCCNC(=N)N)NC(=O)[C@@H](NC(=O)[C@H](CC(C)C)NC(=O)[C@H](Cc1c[nH]c2ccccc12)NC(=O)[C@H](CCCCN)NC(=O)[C@@H](NC(=O)[C@H](Cc1ccccc1)NC(=O)[C@H](CCC(=O)O)NC(=O)[C@H](CCCNC(=N)N)NC(=O)[C@H](C)NC(=O)[C@H](CCCNC(=N)N)NC(=O)[C@H](CCCNC(=N)N)NC(=O)[C@H](C)NC(=O)[C@H](CC(=O)O)NC(=O)[C@H](CC(C)C)NC(=O)[C@H](Cc1ccc(O)cc1)NC(=O)[C@H](CCCNC(=N)N)NC(=O)[C@H](C)NC(=O)[C@H](Cc1ccc(O)cc1)NC(=O)[C@H](CC(=O)O)NC(=O)[C@H](CO)NC(=O)[C@@H](NC(=O)[C@H](Cc1ccccc1)NC(=O)[C@@H](NC(=O)CNC(=O)[C@H](CCC(N)=O)NC(=O)[C@H](CO)NC(=O)[C@@H](N)Cc1c[nH]cn1)[C@@H](C)O)[C@@H](C)O)[C@@H](C)CC)C(C)C)C(=O)O [G182] (H-HSQGTFTSDYARYLDARRAREFIKWLVRGRGK(Palmitoyl)-OH; N-terminus and C-terminus assumed) | 220 | 1.4 | 104 | 12.6 | 14 | 
2 | CCCCCCCCCCCCCCCC(=O)NCCCC[C@H](NC(=O)[C@H](C)NC(=O)[C@H](CCCNC(=N)N)NC(=O)[C@H](CCCNC(=N)N)NC(=O)[C@H](C)NC(=O)[C@H](CC(=O)O)NC(=O)[C@H](CC(C)C)NC(=O)[C@H](Cc1ccc(O)cc1)NC(=O)[C@H](CCCCN)NC(=O)[C@H](C)NC(=O)[C@H](Cc1ccc(O)cc1)NC(=O)[C@H](CC(=O)O)NC(=O)[C@H](CO)NC(=O)[C@@H](NC(=O)[C@H](Cc1ccccc1)NC(=O)[C@@H](NC(=O)CNC(=O)[C@H](CCC(N)=O)NC(=O)[C@H](CO)NC(=O)[C@@H](N)Cc1c[nH]cn1)[C@@H](C)O)[C@@H](C)O)C(=O)N[C@@H](CCC(=O)O)C(=O)N[C@@H](Cc1ccccc1)C(=O)N[C@H](C(=O)N[C@@H](C)C(=O)N[C@@H](Cc1c[nH]c2ccccc12)C(=O)N[C@@H](CC(C)C)C(=O)N[C@H](C(=O)N[C@@H](CCCCN)C(=O)NCC(=O)N[C@@H](CCCNC(=N)N)C(N)=O)C(C)C)[C@@H](C)CC [G87] (H-HSQGTFTSDYAKYLDARRAK(Palmitoyl)EFIAWLVKGR-NH2; N-terminus assumed) | 620 | 6.1 | 100 | 98.6 | 13 | 
3 | CC[C@H](C)[C@H](NC(=O)[C@H](Cc1ccccc1)NC(=O)[C@H](CCC(=O)O)NC(=O)[C@H](CCCCN)NC(=O)[C@H](C)NC(=O)[C@H](C)NC(=O)[C@H](CCC(N)=O)NC(=O)CNC(=O)[C@H](CCC(=O)O)NC(=O)[C@H](CC(C)C)NC(=O)[C@H](Cc1ccc(O)cc1)NC(=O)[C@H](CO)NC(=O)[C@H](CO)NC(=O)[C@@H](NC(=O)[C@H](CC(=O)O)NC(=O)[C@H](CO)NC(=O)[C@@H](NC(=O)[C@H](Cc1ccccc1)NC(=O)[C@@H](NC(=O)CNC(=O)[C@H](CCC(=O)O)NC(=O)[C@H](C)NC(=O)[C@@H](N)Cc1c[nH]cn1)[C@@H](C)O)[C@@H](C)O)C(C)C)C(=O)N[C@@H](C)C(=O)N[C@@H](Cc1c[nH]c2ccccc12)C(=O)N[C@@H](CC(C)C)C(=O)N[C@H](C(=O)N[C@@H](CCCCN)C(=O)NCC(=O)N[C@@H](CCCNC(=N)N)C(N)=O)C(C)C [GLP-1, reference compound] |  |  |  |  |  | approximately 2 fold

The next lines start with results.

Row | IC50 (glucagon receptor) [nM] | GLP1 Relative Potency (GLP-1 receptor [1]) [%] | Emax (GLP-1 receptor [1]) [%] | IC50 (GLP-1 receptor [2]) [nM] | SMILES | In vivo Decrease IpGTT AUC [3] [%] | Increase of insulin secretion from perfused islets (perfused rat islets)
4 | 350 | 2.3 | 118 | 109 | CCCCCCCCCCCCCCCC(=O)NCCCC[C@H](NC(=O)[C@H](CCCNC(=N)N)NC(=O)CNC(=O)[C@H](CCCCN)NC(=O)[C@@H](NC(=O)[C@H](CC(C)C)NC(=O)[C@H](Cc1c[nH]c2ccccc12)NC(=O)[C@H](C)NC(=O)[C@@H](NC(=O)[C@H](Cc1ccccc1)NC(=O)[C@H](CCC(=O)O)NC(=O)[C@H](CCCCN)NC(=O)[C@H](C)NC(=O)[C@H](CCCNC(=N)N)NC(=O)[C@H](CCCNC(=N)N)NC(=O)[C@H](C)NC(=O)[C@H](CC(=O)O)NC(=O)[C@H](CC(C)C)NC(=O)[C@H](Cc1ccc(O)cc1)NC(=O)[C@H](CCCCN)NC(=O)[C@H](C)NC(=O)[C@H](Cc1ccc(O)cc1)NC(=O)[C@H](CC(=O)O)NC(=O)[C@H](CO)NC(=O)[C@@H](NC(=O)[C@H](Cc1ccccc1)NC(=O)[C@@H](NC(=O)CNC(=O)[C@H](CCC(N)=O)NC(=O)[C@H](CO)NC(=O)[C@@H](N)Cc1c[nH]cn1)[C@@H](C)O)[C@@H](C)O)[C@@H](C)CC)C(C)C)C(=O)O [G88] (H-HSQGTFTSDYAKYLDARRAKEFIAWLVKGRK(Palmitoyl)-OH; N-terminus and C-terminus assumed) | 16 | 
5 | 726 | 0.8 | 83.5 | 25.4 | CCCCCCCCCCCCCCCC(=O)NCCCC[C@H](NC(=O)[C@@H](NC(=O)[C@H](Cc1ccccc1)NC(=O)[C@H](CCC(=O)O)NC(=O)[C@H](CCCNC(=N)N)NC(=O)[C@H](C)NC(=O)[C@H](CCCNC(=N)N)NC(=O)[C@H](CCCNC(=N)N)NC(=O)[C@H](C)NC(=O)[C@H](CC(=O)O)NC(=O)[C@H](CC(C)C)NC(=O)[C@H](Cc1ccc(O)cc1)NC(=O)[C@H](CCCNC(=N)N)NC(=O)[C@H](C)NC(=O)[C@H](Cc1ccc(O)cc1)NC(=O)[C@H](CC(=O)O)NC(=O)[C@H](CO)NC(=O)[C@@H](NC(=O)[C@H](Cc1ccccc1)NC(=O)[C@@H](NC(=O)CNC(=O)[C@H](CCC(N)=O)NC(=O)[C@H](CO)NC(=O)[C@@H](N)Cc1c[nH]cn1)[C@@H](C)O)[C@@H](C)O)[C@@H](C)CC)C(=O)N[C@@H](Cc1c[nH]c2ccccc12)C(=O)N[C@@H](CC(C)C)C(=O)N[C@H](C(=O)N[C@@H](CCCNC(=N)N)C(=O)NCC(=O)N[C@@H](CCCNC(=N)N)C(=O)NCC(=O)O)C(C)C [G90] | 13 | 
